Measured values taken from publication PMC6779124 (ACS infectious diseases, 2018).

Target: Stk1 kinase domain (Staphylococcus aureus, UniProt A0A0H2XGG5)
Assay: […]-ATP autoradiography, autophosphorylation and MBP phosphorylation
Format: biochemical
Settings: […] kinase domain, […] MBP, […] ATP, […] MnCl2, pH […] °C

| Compound | 32P-ATP autoradiography, autophosphorylation and MBP phosphorylation | 32P-ATP autoradiography, autophosphorylation and MBP phosphorylation (inhibitor […]) |
| --- | --- | --- |
| CN1CCN(c2ccc(Nc3nccc(-c4cnn5ncccc45)n3)cc2C#N)CC1 [CAF078, 2-(4-Methylpiperazin-1-yl)-5-((4-(pyrazolo-[1,5-b]-pyridazin-3-yl)pyrimidin-2-yl)amino)benzonitrile] | CAF052 and CAF078 robustly inhibited Stk1 kinase activity like the GW779439X control | – |
| CN1CCN(c2cccc(Nc3nccc(-c4cnn5ncccc45)n3)c2)CC1 [CAF077, N-(3-(4-Methylpiperazin-1-yl)phenyl)-4-(pyrazolo-[1,5-b]pyridazin-3-yl)pyrimidin-2-amine] | CAF045 and CAF077, displayed an intermediate phenotype with partial Stk1 inhibition | – |
| CN1CCN(c2ccc(Nc3nccc(-c4cnn5ncccc45)n3)cc2)CC1 [CAF045, N-(4-(4-Methylpiperazin-1-yl)phenyl)-4-(pyrazolo-[1,5-b]pyridazin-3-yl)pyrimidin-2-amine] | CAF045 and CAF077, displayed an intermediate phenotype with partial Stk1 inhibition | – |
| CN1CCN(c2ccc(Nc3nccc(-c4cnn5ncccc45)n3)cc2F)CC1 [CAF052, N-(3-Fluoro-4-(4-methylpiperazin-1-yl)phenyl)-4-(pyrazolo[1,5-b]pyridazin-3-yl)pyrimidin-2-amine] | – | CAF052 and CAF078 robustly inhibited Stk1 kinase activity like the GW779439X control |
